Assay results published in patent publication US12391643B2, “Substituted amino-thiol and amino-disulfide compounds, and uses thereof” (The Regents of the University of California, priority 2019, dated 2025).

Legend:
cystinotic fibroblasts [1] = assay: Cystine re-accumulation after washout in cystinotic fibroblasts; format: cell-based, human; conditions: 100 uM for 3 h, then drug-free media up to 17 h; vs cystamine
Protocol: (§1) In vitro experiments with isotopically enriched cystamine in cystinotic fibroblasts. Fibroblasts from a de-identified cystinotic patient were split 3× from 2 plates into 36 plates. Three different drugs were used for the experiments: cystamine (non-labeled), d2-cystamine, and d4-cystamine. There were two time series for each drug. The first was with constant drug incubation and included: 0, 10 min, 30 min, 1 h, 3 h, and 5 h. The other series included a washout after 3 h drug incubation, using fresh media following a PBS wash, and included the timepoints: 0, 30 min, 1 h, 3 h, 5 h, and 17 h. A direct quench and extraction technique were used for harvesting all cells to minimize further oxidation and metabolism. This included 2× washes with PBS that included 5 mM N-ethylmaleimide for trapping free thiol groups, and then scraping the plates with an acidified organic solvent extraction solution containing both d4-cystine and d4-cysteamine (plus d-8 cystamine) as internal standards. All samples were run on an API 4500 triple quadrupole LC-MS/MS, with selective reaction monitoring (SRM/MRM) for the following compounds of interest: cystine, NEM-cysteamine, NEM-cysteine, cystamine, and 2-(methylthio)ethylamine. All data fit well to single exponential curves (either decay or association), except where mentioned.
Cystine measurement after washout: Fibroblast cultures were exposed to 100 uM cystamine/d2-cystamine/d4-cystamine for 3 h. Following incubation, cells were washed with PBS, and then incubated with regular media (containing FBS) for the following timepoints: 0 min, 30 min, 1 h, 3 h, 5 h, and 17 h. Cells were harvested identically as described previously.
(§2) Fibroblasts from a de-identified cystinotic patient were split 3× from 2 plates into 18 plates. Two different drugs were used for the experiments: D4n-cystamine, and D8-cystamine. There were two time series for each drug. The first was with constant drug incubation and included: 0, 15 min, 30 min, 1 hr, and 3 hr. The other series included a washout after 3 hours of drug incubation, using fresh media following a PBS wash, and included the time-points: 0, 1 hr, 3 hr, and 16 hr. A direct quench and extraction technique was used for harvesting all cells to minimize further oxidation and metabolism. […] All samples were run on an API 4500 triple quadruple LC-MS/MS, with selective reaction monitoring (SRM/MRM) for the following compounds of interest: cystine, NEM-cysteamine, NEM-cysteine, and cystamine. All data fit well to single exponential curves (either decay or association), except where mentioned.
Fibroblast cultures were exposed to 50 μM cystamine (D8 or D4n) for 3 hours. Following incubation, cells were washed with PBS and then incubated with regular mediate containing FBS for 1 h, 3 h, and 16 h. Cells were harvested as above. […] Cystine reaccumulation between D4n-cystamine and D8-cystamine are very similar, indicating similar levels of drug remaining during the washout timepoints (FIG. 15).

[2] = tested on: C57BL/6 male mice on CDAHFD diet; assay: In vivo NASH model, prevention phase (drug in drinking water, 8 weeks); conditions: about 200 mg/kg/day in drinking water, n=8 per group
Protocol: In vivo NASH Models. NASH models from normal C57BL/6 male mice on CDAHFD diet (choline deficient, L-amino acid defined, high fat diet with restricted amount of methionine) were used. Two deuterated cystamine molecules were tested:
Two phase study was performed: (1) A prevention and (2) a treatment phase. 48 Mice were separated into nine groups of mice as described below. Histology at end of each study was performed looking for specific features of NASH (steatohepatitis, ballooning, fibrosis). The primary endpoint was plasma ALT measurement. Gene expression studies for fibrosis, inflammation were also performed.
Drug (D2 or D4) was administered in drinking water at a concentration to deliver animals about 200 mg/kg/day of drug. Daily weight. Volume of fluid drunk/day was also measured.
Prevention Phase. Group 1: Control mice on CDAHFD for 8 weeks. Blood drawn at 0, 4, and 8 weeks. Group 2: Mice on CDAHFD plus D2 at 200 mg/kg/day for 8 weeks. Blood drawn at 0, 4, and 8 weeks. Group 3: Mice on CDAHFD plus D4 at 200 mg/kg/day for 8 weeks. Blood drawn at 0, 4, and 8 weeks. Group 4: Control mice (n=4) continue on CDAHFD for 2 weeks. Blood at baseline and at 2 weeks. Liver histology at 2 weeks. Group 5: Mice (n=4) on CDAHFD for 2 weeks plus D2 at 200 mg/kg/day administered via daily gavage. Blood at 0 and 2 weeks and histology at 2 weeks. […]

cystinotic fibroblasts [3] = assay: Intracellular NEM-cysteamine, NEM-cysteine, cystamine and mixed disulfide levels in cystinotic fibroblasts; format: cell-based, human; conditions: washout period
Protocol: as §1
NEM-cysteamine and NEM-cysteine during constant incubation. Fibroblast cultures were exposed to drug (either cystamine, d2-cystamine, or d4-cystamine) and harvested as described on page 2 for the cystine depletion curve. NEM-cysteamine (or NEM-d1-cysteamine or NEM-d2-cysteamine) was measured for each respective plate and normalized against the signal for d4-cystine.
NEM-cysteamine during washout. Fibroblast cultures were exposed to drug (either cystamine, d2-cystamine, or d4-cystamine) for 3 h were then exposed to media for various timepoints and harvested as previously described.
NEM-cysteine during washout. Fibroblast cultures were exposed to drug (either cystamine, d2-cystamine, or d4-cystamine) for 3 h were then exposed to media for various timepoints and harvested as previously described.
Cystamine during constant drug incubation. Fibroblast cultures were exposed to drug (either cystamine, d2-cystamine, or d4-cystamine) for various timepoints following harvesting as described earlier. Cystamine could be measured in the non-labeled cystamine incubation as well as the d4-cystamine incubation. d2-cystamine could not be accurately measured due to a strong background interference signal corresponding to that mass. No cystamine could be measured in the washout experiments.

Pooled human hepatocytes = assay: Hepatocyte elimination (in vitro metabolic stability, percent parent remaining by LC/MS/MS); format: in vitro ADME; conditions: compared with other forms
Description: In vitro experiments with isotopically enriched cystamine and cysteamine in hepatocytes.
The assessment of in vitro metabolic stability provides a means to measure the susceptibility of a test compound to biotransformation by the liver. While liver microsomes primarily assess cytochrome P450 system-mediated metabolism (phase I metabolism), hepatocytes represent a complete, undisrupted metabolic system, including cofactors, and thus assess both phase I and phase II metabolism. In all cases, the metabolic stability of test compounds was determined by monitoring, via LC/MS/MS, the percent parent compound remaining versus time of incubation in human hepatocytes.
Pooled human hepatocytes (catalog number HMCS10, ThermoFischer Scientific) were thawed according to the manufacturers instructions. Thawed hepatocytes were washed by centrifugation and replated in Williams' Medium E supplemented with Heptocyte Plating Supplement Pack, Serum-containing.
Cells were diluted to 1,000,000 per ml in maintenance media (Williams' E Media supplemented with Hepatocyte Maintenance Supplement Pack, Serum-free). 500 μl of cell suspension was added to each well of a microtiter plate containing 500 μl of the deuterated test agent and placed on an orbital shaker at 120 rpm at 37 C. At the appropriate time point 50 μl aliquots were removed from the well and added to 50 μl of ice cold ethyl acetate and vortexed for 5 min and froze until chromatography analysis.

cystinotic fibroblasts [4] = assay: Cystine depletion during constant drug exposure in cystinotic fibroblasts; format: cell-based, human; conditions: 100 uM constant exposure, 0-5 h; vs cystamine
Protocol: as §1
Following incubation, cells were washed 2× in PBS containing N-ethylmaleimide.
as §2

## [2H]C([2H])(CN)SSC([2H])([2H])CN [D4-Cystamine, 2,2′-disulfanediylbis(ethan-2,2-d2-1-aminium) chloride]
Cystinotic fibroblasts [1]
  Cystine re-accumulation after washout, comparison in words: very similar
[2]
  ALT levels at 8 weeks versus control group: not between the control group and D4
Cystinotic fibroblasts [3]
  NEM-cysteine level after 3 h incubation and washout: rise and increase
Pooled human hepatocytes
  Rate of hepatocyte elimination / stability, comparison in words: most stable of the dimeric compounds
Pooled human hepatocytes; listed as D4 cystamine
  Rate of hepatocyte elimination / stability, comparison in words: slower rate than D2 or non-deuterated cystamine
Cystinotic fibroblasts [4]
  Rate of intracellular cystine depletion, comparison in words: nearly identical
